Earlier results, collected in patent US5594100A, “Epitope for prevention of type I diabetes” (Regents of the University of Colorado, priority 1995, dated 1997).

Tested on: islet-specific T cell lines and clones from islet-infiltrating lymphocytes
Conditions: panel of nominally islet-specific lines and clones from female NOD mice

porcine insulin: Porcine insulin (Sigma) used for testing specificity of insulin-specific T cell lines and clones
T cell lines and clones responding to porcine insulin: 22 of 40 | percent of T cell lines and clones responding to porcine insulin: 55%
